# Laboratory results: PubChem BioAssay AID504678 (The Scripps Research Institute Molecular Screening Center, 2011)
# Calls of active or inactive are those of the source.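 Rule for the calls: active = compound whose IC50 against bacterial viability is at or below 10 µM; inactive = IC50 above 10 µM.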
# Test system: E. coli V3065 growth, OD600 absorbance
# Assay: E. coli V3065 growth inhibition, dose response, counter-screen for AddAB recombination inhibitor project, absorbance, OD600 (AID 504678)
row,SMILES,IC50
1,O=C(Nc1ccc(N2CCOCC2)cc1)c1ccc([N+](=O)[O-])o1,17.3 µM (inactive)
2,Cc1ccc2nc(/C(C#N)=C\c3ccc([N+](=O)[O-])o3)[nH]c2c1,> 119 µM (inactive)
3,CCn1cc(C(=O)O)c(=O)c2cnc(N3CCN(C(=S)Nc4ccccc4C(F)(F)F)CC3)nc21,> 39.5 µM (inactive)
4,C=CCn1c(Sc2ncc([N+](=O)[O-])s2)n[nH]c1=O,20.4 µM (inactive)
5,Cc1cccnc1NC(=O)c1ccc([N+](=O)[O-])o1,39.5 µM (inactive)
6,N#Cc1c(NC(=O)c2ccc([N+](=O)[O-])o2)sc2c1CCC2,> 119 µM (inactive)
7,O=C(Nc1ncccn1)c1ccc([N+](=O)[O-])o1,33 µM (inactive)
8,O=C(OCC(=O)c1cccs1)c1ccc([N+](=O)[O-])o1,> 119 µM (inactive)
9,CC(=O)Nc1ccc2nc(NC(=O)c3ccc([N+](=O)[O-])o3)sc2c1,> 119 µM (inactive)
10,O=C(Nc1cccc(NC(=O)c2ccccc2Cl)c1)c1ccc([N+](=O)[O-])o1,> 119 µM (inactive)
11,O=C(NCc1cccnc1)c1ccc([N+](=O)[O-])o1,> 39.5 µM (inactive)
12,NC(=O)c1ccsc1NC(=O)COC(=O)c1ccc([N+](=O)[O-])o1,> 119 µM (inactive)
